In the supplement of paper PMC10307832:

Legend:
Assay in all cases: relative viability (nuclei count vs DMSO), 5 days (fraction); higher = more cells survive
SK-MES-1 = tested on: SK-MES-1
Outline: (§1)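 Five library-drug doses in √10 steps were combined with a fixed anchor-drug dose, or a single drug was given alone, by pin tool to lung cancer cell lines in 1536-well plates the day after seeding. Nuclei were stained and counted after 5 days. Relative viability is the nuclei count in treated wells over that in vehicle wells, taken as the median of duplicate plates.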

EMC-BAC-2 = tested on: EMC-BAC-2
Outline: as §1

RERF-LC-KJ = tested on: RERF-LC-KJ
Outline: as §1

NCI-H2087 = tested on: NCI-H2087
Outline: as §1

HARA = tested on: HARA
Outline: as §1

NCI-H2126 = tested on: NCI-H2126
Outline: as §1

LXF-289 = tested on: LXF-289
Outline: as §1

UMC-11 = tested on: UMC-11
Outline: as §1

HCC-78 = tested on: HCC-78
Outline: as §1

HOP-62 = tested on: HOP-62
Outline: as §1

SW 900 = tested on: SW 900
Outline: as §1

LOU-NH91 = tested on: LOU-NH91
Outline: as §1

NCI-H1993 = tested on: NCI-H1993
Outline: as §1

NCI-H650 = tested on: NCI-H650
Outline: as §1

LU99A = tested on: LU99A
Outline: as §1

BEN = tested on: BEN
Outline: as §1

NCI-H1395 = tested on: NCI-H1395
Outline: as §1

NCI-H1563 = tested on: NCI-H1563
Outline: as §1

NCI-H2170 = tested on: NCI-H2170
Outline: as §1

201T = tested on: 201T
Outline: as §1

LC-2-ad = tested on: LC-2-ad
Outline: as §1

H3255 = tested on: H3255
Outline: as §1

COR-L 105 = tested on: COR-L 105
Outline: as §1

Cc1csc(=NC2CCCCC2)n1/N=C/c1ccc(O)c(O)c1O [MIM1] + N=C(N)NC(=N)NCCc1ccccc1 [Phenformin] (partner 250 µM)
relative viability (SK-MES-1; first compound 0.2 µM): 0.643
relative viability (SK-MES-1; first compound 0.6325 µM): 0.665
relative viability (SK-MES-1; first compound 2 µM): 0.617
relative viability (SK-MES-1; first compound 6.325 µM): 0.484
relative viability (SK-MES-1; first compound 20 µM): 0.41
relative viability (EMC-BAC-2; first compound 0.2 µM): 0.547
relative viability (EMC-BAC-2; first compound 0.6325 µM): 0.455
relative viability (EMC-BAC-2; first compound 2 µM): 0.515
relative viability (EMC-BAC-2; first compound 6.325 µM): 0.48
relative viability (EMC-BAC-2; first compound 20 µM): 0.208
relative viability (RERF-LC-KJ; first compound 0.2 µM): 0.447
relative viability (RERF-LC-KJ; first compound 0.6325 µM): 0.414
relative viability (RERF-LC-KJ; first compound 2 µM): 0.348
relative viability (RERF-LC-KJ; first compound 6.325 µM): 0.353
relative viability (RERF-LC-KJ; first compound 20 µM): 0.303
relative viability (NCI-H2087; first compound 0.2 µM): 0.457
relative viability (NCI-H2087; first compound 0.6325 µM): 0.443
relative viability (NCI-H2087; first compound 2 µM): 0.478
relative viability (NCI-H2087; first compound 6.325 µM): 0.289
relative viability (NCI-H2087; first compound 20 µM): 0.225
relative viability (HARA; first compound 0.2 µM): 0.455
relative viability (HARA; first compound 2 µM): 0.49
relative viability (HARA; first compound 6.325 µM): 0.16
relative viability (HARA; first compound 20 µM): 0.0907
relative viability (NCI-H2126; first compound 0.2 µM): 0.512
relative viability (NCI-H2126; first compound 0.6325 µM): 0.524
relative viability (NCI-H2126; first compound 2 µM): 0.54
relative viability (NCI-H2126; first compound 6.325 µM): 0.45
relative viability (NCI-H2126; first compound 20 µM): 0.391
relative viability (LXF-289; first compound 0.2 µM): 0.517
relative viability (LXF-289; first compound 0.6325 µM): 0.476
relative viability (LXF-289; first compound 2 µM): 0.532
relative viability (LXF-289; first compound 6.325 µM): 0.452
relative viability (LXF-289; first compound 20 µM): 0.264
relative viability (UMC-11; first compound 0.2 µM): 0.326
relative viability (UMC-11; first compound 2 µM): 0.336
relative viability (UMC-11; first compound 6.325 µM): 0.291
relative viability (UMC-11; first compound 20 µM): 0.201
relative viability (HCC-78; first compound 0.2 µM): 0.81
relative viability (HCC-78; first compound 0.6325 µM): 0.53
relative viability (HCC-78; first compound 2 µM): 0.628
relative viability (HCC-78; first compound 6.325 µM): 0.597
relative viability (HCC-78; first compound 20 µM): 0.347
relative viability (HOP-62; first compound 0.2 µM): 0.641
relative viability (HOP-62; first compound 0.6325 µM): 0.603
relative viability (HOP-62; first compound 2 µM): 0.624
relative viability (HOP-62; first compound 6.325 µM): 0.608
relative viability (HOP-62; first compound 20 µM): 0.157
relative viability (SW 900; first compound 0.2 µM): 0.683
relative viability (SW 900; first compound 0.6325 µM): 0.712
relative viability (SW 900; first compound 2 µM): 0.778
relative viability (SW 900; first compound 6.325 µM): 0.495
relative viability (SW 900; first compound 20 µM): 0.176
relative viability (LOU-NH91; first compound 0.2 µM): 0.695
relative viability (LOU-NH91; first compound 0.6325 µM): 0.709
relative viability (LOU-NH91; first compound 2 µM): 0.625
relative viability (LOU-NH91; first compound 6.325 µM): 0.548
relative viability (LOU-NH91; first compound 20 µM): 0.302
relative viability (NCI-H1993; first compound 0.2 µM): 0.481
relative viability (NCI-H1993; first compound 0.6325 µM): 0.545
relative viability (NCI-H1993; first compound 2 µM): 0.474
relative viability (NCI-H1993; first compound 6.325 µM): 0.443
relative viability (NCI-H1993; first compound 20 µM): 0.463
relative viability (NCI-H650; first compound 0.2 µM): 0.477
relative viability (NCI-H650; first compound 0.6325 µM): 0.389
relative viability (NCI-H650; first compound 2 µM): 0.474
relative viability (NCI-H650; first compound 6.325 µM): 0.412
relative viability (NCI-H650; first compound 20 µM): 0.241
relative viability (LU99A; first compound 0.2 µM): 0.976
relative viability (LU99A; first compound 0.6325 µM): 0.753
relative viability (LU99A; first compound 2 µM): 0.819
relative viability (LU99A; first compound 6.325 µM): 0.702
relative viability (LU99A; first compound 20 µM): 0.325
relative viability (BEN; first compound 0.2 µM): 0.261
relative viability (BEN; first compound 0.6325 µM): 0.236
relative viability (BEN; first compound 2 µM): 0.236
relative viability (BEN; first compound 6.325 µM): 0.28
relative viability (BEN; first compound 20 µM): 0.213
relative viability (NCI-H1395; first compound 0.2 µM): 0.45
relative viability (NCI-H1395; first compound 0.6325 µM): 0.444
relative viability (NCI-H1395; first compound 2 µM): 0.459
relative viability (NCI-H1395; first compound 6.325 µM): 0.399
relative viability (NCI-H1395; first compound 20 µM): 0.346
relative viability (NCI-H1563; first compound 0.2 µM): 0.672
relative viability (NCI-H1563; first compound 0.6325 µM): 0.734
relative viability (NCI-H1563; first compound 2 µM): 0.706
relative viability (NCI-H1563; first compound 6.325 µM): 0.631
relative viability (NCI-H1563; first compound 20 µM): 0.478
relative viability (NCI-H2170; first compound 0.2 µM): 0.407
relative viability (NCI-H2170; first compound 0.6325 µM): 0.406
relative viability (NCI-H2170; first compound 2 µM): 0.414
relative viability (NCI-H2170; first compound 6.325 µM): 0.264
relative viability (NCI-H2170; first compound 20 µM): 0.172
relative viability (201T; first compound 0.2 µM): 0.456
relative viability (201T; first compound 0.6325 µM): 0.414
relative viability (201T; first compound 2 µM): 0.451
relative viability (201T; first compound 6.325 µM): 0.345
relative viability (201T; first compound 20 µM): 0.321
relative viability (LC-2-ad; first compound 0.2 µM): 0.679
relative viability (LC-2-ad; first compound 0.6325 µM): 0.502
relative viability (LC-2-ad; first compound 2 µM): 0.537
relative viability (LC-2-ad; first compound 6.325 µM): 0.389
relative viability (LC-2-ad; first compound 20 µM): 0.217
relative viability (H3255; first compound 0.2 µM): 0.33
relative viability (H3255; first compound 0.6325 µM): 0.386
relative viability (H3255; first compound 2 µM): 0.379
relative viability (H3255; first compound 6.325 µM): 0.402
relative viability (H3255; first compound 20 µM): 0.302
relative viability (COR-L 105; first compound 0.2 µM): 0.513
relative viability (COR-L 105; first compound 0.6325 µM): 0.461
relative viability (COR-L 105; first compound 2 µM): 0.404
relative viability (COR-L 105; first compound 6.325 µM): 0.316
relative viability (COR-L 105; first compound 20 µM): 0.307
